Measurements reported in PubChem BioAssay (NCI).
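Cultured in 96-well plates, cells were exposed to test compound for 48 hours across five concentrations. GI50 is the concentration that inhibits growth by half. TGI is the concentration that stops growth completely.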

How the values were obtained:
Assay in all cases: NCI tumour cell line growth inhibition, 48 h
RXF 393 renal = system: RXF 393 renal
SN12C renal = system: SN12C renal
T-47D breast = system: T-47D breast
M14 melanoma = system: M14 melanoma
HT29 colon = system: HT29 colon
OVCAR-5 ovarian = system: OVCAR-5 ovarian
CAKI-1 renal = system: CAKI-1 renal
PC-3 prostate = system: PC-3 prostate
K-562 leukemia = system: K-562 leukemia
SNB-19 CNS = system: SNB-19 CNS

How did the GI50 (RXF 393 renal) turn out when `N#Cc1c(N)nc(N2CCOCC2)c(C#N)c1-c1ccc(Cl)cc1` was run?
Its GI50 is 0.475 µM.

What about the TGI (RXF 393 renal) of the same compound?
Its TGI is 45.1 µM.

And the GI50 (SN12C renal)?
The GI50 was 50.9 µM.

And the TGI (SN12C renal)?
Its TGI is over 100 µM.

What about the GI50 (T-47D breast) of the same compound?
Its GI50 is 16.1 µM.

And the TGI (T-47D breast)?
The TGI was over 100 µM.

What about the GI50 (M14 melanoma) of the same compound?
The GI50 was 44.6 µM.

What about the TGI (M14 melanoma) of the same compound?
Its TGI is over 100 µM.

What about the GI50 (HT29 colon) of the same compound?
Its GI50 is 43.3 µM.

What about the TGI (HT29 colon) of the same compound?
The TGI was over 100 µM.

And the GI50 (OVCAR-5 ovarian)?
Its GI50 is 80.4 µM.

And the TGI (OVCAR-5 ovarian)?
The TGI was over 100 µM.

And the GI50 (CAKI-1 renal)?
Its GI50 is 26 µM.

And the TGI (CAKI-1 renal)?
The TGI was 97.1 µM.

What about the GI50 (PC-3 prostate) of the same compound?
Its GI50 is 16.6 µM.

What about the TGI (PC-3 prostate) of the same compound?
Its TGI is 70.1 µM.

And the GI50 (K-562 leukemia)?
The GI50 was over 100 µM.

And the TGI (K-562 leukemia)?
The TGI was over 100 µM.

What about the GI50 (SNB-19 CNS) of the same compound?
Its GI50 is 28.1 µM.

What about the TGI (SNB-19 CNS) of the same compound?
The TGI was over 100 µM.

For `Cn1c(=O)c(Oc2ccc(F)cc2F)cc2cnc(NC(CO)CO)nc21`, which GI50 (RXF 393 renal) is on record?
Its GI50 is over 25 µM.

What about the TGI (RXF 393 renal) of the same compound?
The TGI was over 25 µM.

What about the GI50 (SN12C renal) of the same compound?
The GI50 was over 25 µM.

What about the TGI (SN12C renal) of the same compound?
Its TGI is over 25 µM.

And the GI50 (T-47D breast)?
The GI50 was over 25 µM.

What about the TGI (T-47D breast) of the same compound?
The TGI was over 25 µM.

And the GI50 (M14 melanoma)?
The GI50 was over 25 µM.

And the TGI (M14 melanoma)?
Its TGI is over 25 µM.

What about the GI50 (HT29 colon) of the same compound?
The GI50 was over 25 µM.

What about the TGI (HT29 colon) of the same compound?
Its TGI is over 25 µM.

And the GI50 (OVCAR-5 ovarian)?
The GI50 was over 25 µM.

What about the TGI (OVCAR-5 ovarian) of the same compound?
Its TGI is over 25 µM.

And the GI50 (CAKI-1 renal)?
The GI50 was over 25 µM.

And the TGI (CAKI-1 renal)?
Its TGI is over 25 µM.

And the GI50 (PC-3 prostate)?
Its GI50 is over 25 µM.

And the TGI (PC-3 prostate)?
Its TGI is over 25 µM.

And the GI50 (K-562 leukemia)?
The GI50 was over 25 µM.

What about the TGI (K-562 leukemia) of the same compound?
The TGI was over 25 µM.

What about the GI50 (SNB-19 CNS) of the same compound?
Its GI50 is over 25 µM.

And the TGI (SNB-19 CNS)?
Its TGI is over 25 µM.

`Cc1ccc(/C=C2/SC(Nc3nc(-c4nc(NC5=NC(=O)/C(=C\c6ccc(C)cc6)S5)sc4C)c(C)s3)=NC2=O)cc1` was tested. Which GI50 (RXF 393 renal) did it give?
Its GI50 is 0.282 µM.

And the TGI (RXF 393 renal)?
Its TGI is 3.65 µM.

What about the GI50 (SN12C renal) of the same compound?
The GI50 was 0.957 µM.

And the TGI (SN12C renal)?
Its TGI is 18.3 µM.

What about the GI50 (T-47D breast) of the same compound?
Its GI50 is 22.3 µM.

And the TGI (T-47D breast)?
The TGI was over 50 µM.

And the GI50 (M14 melanoma)?
The GI50 was 0.0642 µM.

What about the TGI (M14 melanoma) of the same compound?
The TGI was 1.21 µM.

And the GI50 (HT29 colon)?
Its GI50 is 3.62 µM.

What about the TGI (HT29 colon) of the same compound?
Its TGI is over 50 µM.

What about the GI50 (OVCAR-5 ovarian) of the same compound?
The GI50 was 8.05 µM.

And the TGI (OVCAR-5 ovarian)?
Its TGI is over 50 µM.

And the GI50 (CAKI-1 renal)?
The GI50 was 0.484 µM.

And the TGI (CAKI-1 renal)?
Its TGI is 9.41 µM.

And the GI50 (PC-3 prostate)?
The GI50 was 0.757 µM.

What about the TGI (PC-3 prostate) of the same compound?
Its TGI is over 50 µM.

And the GI50 (K-562 leukemia)?
Its GI50 is 0.418 µM.

And the TGI (K-562 leukemia)?
Its TGI is over 50 µM.

What about the GI50 (SNB-19 CNS) of the same compound?
The GI50 was 10.1 µM.

And the TGI (SNB-19 CNS)?
The TGI was over 50 µM.

How did the GI50 (RXF 393 renal) turn out when `O=C1/C(=C/c2ccc([N+](=O)[O-])o2)Oc2ccc(Br)cc21` was run?
Its GI50 is 1.68 µM.

And the TGI (RXF 393 renal)?
Its TGI is 3.21 µM.

And the GI50 (SN12C renal)?
The GI50 was 1.96 µM.

What about the TGI (SN12C renal) of the same compound?
Its TGI is 4.53 µM.

What about the GI50 (T-47D breast) of the same compound?
The GI50 was 1.92 µM.

What about the TGI (T-47D breast) of the same compound?
The TGI was 4.39 µM.

And the GI50 (M14 melanoma)?
The GI50 was 2.68 µM.

And the TGI (M14 melanoma)?
The TGI was 7.01 µM.

And the GI50 (HT29 colon)?
The GI50 was 2.64 µM.

And the TGI (HT29 colon)?
Its TGI is 5.78 µM.

And the GI50 (OVCAR-5 ovarian)?
Its GI50 is 2.57 µM.

What about the TGI (OVCAR-5 ovarian) of the same compound?
Its TGI is 9.17 µM.

What about the GI50 (CAKI-1 renal) of the same compound?
Its GI50 is 2.31 µM.

And the TGI (CAKI-1 renal)?
Its TGI is 6.59 µM.

And the GI50 (PC-3 prostate)?
Its GI50 is 3.52 µM.

What about the TGI (PC-3 prostate) of the same compound?
Its TGI is 15.2 µM.

What about the GI50 (K-562 leukemia) of the same compound?
Its GI50 is 1.92 µM.

What about the TGI (K-562 leukemia) of the same compound?
Its TGI is 4.59 µM.

And the GI50 (SNB-19 CNS)?
Its GI50 is 16.1 µM.

What about the TGI (SNB-19 CNS) of the same compound?
Its TGI is 30 µM.

With `c1cc(CCN2CCCCC2)ccn1` as the compound, how does the TGI (RXF 393 renal) read?
The TGI was over 100 µM.

And the TGI (SN12C renal)?
Its TGI is over 100 µM.

What about the TGI (T-47D breast) of the same compound?
Its TGI is over 100 µM.

And the TGI (M14 melanoma)?
Its TGI is over 100 µM.

And the TGI (HT29 colon)?
Its TGI is over 100 µM.

And the TGI (OVCAR-5 ovarian)?
Its TGI is over 100 µM.

What about the TGI (CAKI-1 renal) of the same compound?
Its TGI is over 100 µM.

And the TGI (PC-3 prostate)?
Its TGI is over 100 µM.

And the TGI (K-562 leukemia)?
The TGI was over 100 µM.

What about the TGI (SNB-19 CNS) of the same compound?
The TGI was over 100 µM.

Which GI50 (RXF 393 renal) does the source give for `COc1ccc(C/C(C)=C(\c2ccc(OCCN3CCOCC3)cc2)c2ccc(OC(=O)Cc3ccccc3)cc2)cc1` here?
Its GI50 is 0.438 µM.

And the TGI (RXF 393 renal)?
Its TGI is 0.883 µM.

And the GI50 (SN12C renal)?
Its GI50 is 0.612 µM.

What about the TGI (SN12C renal) of the same compound?
The TGI was 1.44 µM.

And the GI50 (T-47D breast)?
Its GI50 is 0.483 µM.

And the TGI (T-47D breast)?
The TGI was 1.28 µM.

And the GI50 (M14 melanoma)?
The GI50 was 0.59 µM.

What about the TGI (M14 melanoma) of the same compound?
Its TGI is 1.19 µM.

What about the GI50 (HT29 colon) of the same compound?
The GI50 was 0.288 µM.

What about the TGI (HT29 colon) of the same compound?
The TGI was 0.716 µM.

And the GI50 (OVCAR-5 ovarian)?
The GI50 was 0.951 µM.

And the TGI (OVCAR-5 ovarian)?
The TGI was 10.7 µM.

What about the GI50 (CAKI-1 renal) of the same compound?
Its GI50 is 0.729 µM.

And the TGI (CAKI-1 renal)?
Its TGI is 2.13 µM.

What about the GI50 (PC-3 prostate) of the same compound?
Its GI50 is 0.747 µM.

What about the TGI (PC-3 prostate) of the same compound?
The TGI was 2.97 µM.

What about the GI50 (K-562 leukemia) of the same compound?
Its GI50 is 0.456 µM.

What about the TGI (K-562 leukemia) of the same compound?
The TGI was 1.66 µM.

And the GI50 (SNB-19 CNS)?
The GI50 was 1.3 µM.

What about the TGI (SNB-19 CNS) of the same compound?
Its TGI is 8.34 µM.

Which results are given for `Cc1ccc2c(c1C)-c1c(ccc(C)c1C)C(=O)C2=O`?
TGI (RXF 393 renal): 2.57 µM; TGI (SN12C renal): 2.73 µM; TGI (T-47D breast): 44.3 µM; TGI (M14 melanoma): 2.12 µM; TGI (HT29 colon): 7.43 µM; TGI (OVCAR-5 ovarian): 3.42 µM; TGI (CAKI-1 renal): 7.84 µM; TGI (PC-3 prostate): 7.3 µM; TGI (K-562 leukemia): 1.1 µM; TGI (SNB-19 CNS): 23.8 µM

`O=C1Nc2ccccc2C1Cc1ccc([N+](=O)[O-])cc1` (stereo not given) was tested. Which TGI (RXF 393 renal) did it give?
The TGI was over 100 µM.

And the TGI (SN12C renal)?
Its TGI is over 100 µM.

And the TGI (T-47D breast)?
The TGI was over 100 µM.

What about the TGI (M14 melanoma) of the same compound?
Its TGI is over 100 µM.

And the TGI (HT29 colon)?
Its TGI is over 100 µM.

And the TGI (OVCAR-5 ovarian)?
The TGI was over 100 µM.

And the TGI (CAKI-1 renal)?
Its TGI is over 100 µM.

What about the TGI (PC-3 prostate) of the same compound?
The TGI was over 100 µM.

And the TGI (K-562 leukemia)?
Its TGI is over 100 µM.

What about the TGI (SNB-19 CNS) of the same compound?
Its TGI is over 100 µM.
